Measured values reported in patent US9351986B2, “Calicheamicin derivative-carrier conjugates” (priority 2002, dated 2016).
Values joined by “and” are separate entries in the source; they are usually repeats but may differ in a detail not shown here. Equal values may be shown once.

Experiments:
Fc-CD22 = experiment: BIACORE blocking of murine anti-CD22 mAbs by G5/44 on immobilized Fc-CD22; assay type: binding; details: Fc-CD22 saturated with G5/44 (100 μg/ml), before murine mAb
Procedure: Whether or not G5/44 can inhibit the binding of murine mAbs of known specificity to CD22 was evaluated by BIACORE™ analysis using Fc-CD22 immobilized to a BIACORE™ CM5 chip. The surface plasmon resonance units (RU) obtained with and without prior saturation of the immobilized Fc-CD22 with G5/44 were compared. Biomolecular interaction analysis was performed using a BIACORE™ 2000. Antibodies were passed over a blank control surface (flowcell 1, serves as a control, no protein was coupled) and the test surface of Fc-CD22 (flowcell 2) immobilized on a CM5 sensor chip via amine coupling chemistry to a level of 9,042 RU. The resultant sensorgram was the response (RU) on flowcell 2 minus the response (RU) on flowcell 1. A second sensorgram was obtained by first saturating the flowcells with G5/44 (100 μg/ml) before the introduction of murine mAbs against CD22 that had been previously characterized for their binding. Immediately upon measuring the G5/44 response, murine anti-CD22 mAbs were individually perfused without removing G544. The second combined response generated due to the binding of murine anti-CD22 mAb to G5/44-coated CD22 was also recorded. If the murine antibody bound to CD22 at sites unrelated to those occupied by G5/44, then the combined responses would be additive. […]

Ramos cells [1] = experiment: Disseminated RAMOS B lymphoma in SCID mice, developing model; assay type: in vivo; details: Table 8; conjugates 160 μg/kg, rituximab 20 mg/kg ip Q4Dx3 from day 3
Procedure: (§1) Male SCID mice (CB17 SCID), 20-25 g, were injected with […] through the tail vein (0.2 ml). […] For the day 3 treatment schedule, mice were dosed on days 3, 7, and 11. For the day 9 treatment schedule, mice were dosed on days 9, 13 and 17. […] Mice were monitored daily for the presence of hind limb paralysis at which time they were killed. Seven to 10 mice per treatment group were used. The group average survival time (±SD), median, minimum, and maximum survival times were all calculated. The difference in survival distribution between groups was determined by using a nonparametric Log-rank test with significance reported at the 0.05 level. The survival curves were constructed using the Kaplan-Meier method.
(§2) The initial study examined the effect of two different dosing schedules on survival times of the SCID mice with the disseminated lymphoma. The first study looked at initiating drug dosing 3 days after the tumor cells were injected intravenously (developing model), while the second study delayed drug dosing until 9 days post tumor cell injection (established model).

Ramos cells [2] = experiment: Ramos cell viability, CMC-544 with and without rituximab, 96 hours; assay type: cell-based; details: CMC-544 alone, calicheamicin DMH
Procedure: After 96 hours, cell viability was measured by propidium iodide exclusion analyzed by flow cytometry. […] The statistical analysis was conducted using the PROBIT procedure in SAS version 8.2.

RAMOS B-cell lymphoma = RAMOS B-cell lymphoma xenograft growth; assay type: in vivo; details: FIG. 18
Source text: In Vivo Cytotoxicity. CMC-544 made by the CMC-544 process was further evaluated in B-cell lymphoma xenografts. In these studies, two B-cell lymphoma tumors, RAMOS and RL, were used. RL lymphoma is a non-Burkitt's NHL-derived cell line whereas RAMOS was originally derived from a Burkitt's lymphoma.

large RAMOS lymphoma = experiment: Large established RAMOS lymphoma xenografts; assay type: in vivo, nude mice; details: days 1, 5 and 9
Procedure: (§3) The ability of CMC-544 made by the new procedure to inhibit growth of large established B-cell lymphoma xenografts using both the RAMOS and RL lymphoma models was also investigated. The tumors were allowed to grow and staged to 1.5 or 2 g of tumor mass after which CMC-544 or an isotype-matched negative control conjugate (CMA-676) were administered intraperitoneally at the dose of 160 μg/kg of conjugated calicheamicin keeping the original schedule of dosing on days 1, 5 and 9.
The same schedule of dosing was shown earlier to cause long lasting regression of small staged tumors (see Table 6).

Ramos cells [3] = experiment: Disseminated RAMOS B lymphoma in SCID mice, established model; assay type: in vivo
Procedure: as §1
as §2, with “model). […]” for “model).”

CD22 on B cells = experiment: Species specificity of CD22 recognition on B cells; assay type: binding, human, murine, rat, canine, porcine, cynomolgus and rhesus; details: data not shown
Source text: (§4) Purified human polyclonal IgG1 and IgG4 were also used as negative controls.

[4] = tested on: CD22− CD33+ HL-60 leukemia cells; experiment: Flow cytometry binding to HL-60 leukemia cells; details: data not shown
Source text: as §4

RL B lymphoma xenograft = experiment: Subcutaneous RL B lymphoma xenograft, CMC-544 versus rituximab and CHOP; assay type: in vivo, Balb/c nude mice; details: IP, Q4Dx3, 160 μg/kg calicheamicin equivalents
Procedure: Female, athymic nude mice, 18-22 g, were given total body irradiation (400 rads). […] Three days after irradiation, mice were injected subcutaneously with 107 RL cells in […] ™ (Collaborative Biomedical Products, Belford, Mass., diluted 1:1 in RPMI medium) in the dorsal, right flank. […] The initial day of drug administration was considered day 1. Two additional doses were given on days 5 and 9 (treatment=q4Dx3). […] Tumors were measured at least once a week and calculated as tumor mass (g)=0.5 (tumor width/2) (tumor length). Group means SEM were calculated and compared to the vehicle-treated group for statistical significance using multiple T-tests. Group means were recorded up to 50 days or until either a mouse died (which disrupted the group mean) or the tumor grew too large (>3.5 g) and the mouse had to be euthanized. […] The number of tumor free mice at the end of each study for each treatment group was also recorded. […]
Individual components of the CHOP regimen were used at their respective maximum tolerated doses assessed in nude mice (data not reported) and were as follows: Cyclophosphamide (C) 40 mg/kg IP, doxorubicin (H) 3.3 mg/kg IP, vincristine (O) 0.5 mg/kg IP, and prednisone (P) 0.2 mg/kg PO. […]

RL lymphoma = experiment: Large established RL lymphoma xenografts; assay type: in vivo, mice
Procedure: as §3
A similar experiment using CMC-544 was carried out in the RL lymphoma model. Intraperitoneal administration of CMC-544 at a dose of 160 μg/kg on a similar schedule as described before caused >90% regression of the pre-existing mass of RL lymphoma within 30 days. […] In a small number of studies not shown here, RL lymphomas that re-grew sporadically after the initial CMC-544-induced regression were retreated with CMC-544 again. […] Thus, the treatment with CMC-544 can be effective against both small and large masses of B-cell lymphomas with the potential for repeat therapy.

RL NHL xenografts = RL NHL xenografts staged to 300-400 mg in nude mice; assay type: in vivo; details: for MEAN RELATIVE TUMOR GROWTH: tumor mass at Week 3/day 1
Procedure: Similar studies were carried out using the RL lymphoma model. […] CMC-544 in a dose-dependent manner caused tumors to regress over a 3-week time frame. The minimally effective dose of CMC-544 in the RL lymphoma model was established from statistical analyses of these studies to be 20 μg/kg based on calicheamicin content. There were no deaths in any of these three studies.
The observed anti-tumor efficacy was dose-dependent as expected and there was no difference in the efficacies of either of the two CMC-544 preparations. […] However, it should be emphasized that for each dose of conjugated calicheamicin, the quantity of antibody protein administered in the form of a conjugate was four times higher for CMC-544 made by the CMA-676 process versus that made by the CMC-544 process. Since the calicheamicin content of the targeted conjugate is primarily responsible for causing the anti-tumor effect, it is possible to deliver the required quantity of calicheamicin via the conjugate made by the new procedure using much smaller quantities of the targeting antibody. The increased loading of the conjugate made by the CMC-544 process is, in effect, due to the lack of significant amounts of the low conjugated fraction (LCF).

[5] = Table 8, conjugates 160 μg/kg, rituximab 20 mg/kg ip Q4Dx3 from day 9
[6] = Table 9, high dose: CMC-544 160 μg/kg, rituximab 20 mg/kg, alone or combined
[7] = Table 10, high dose: CMC-544 160 μg/kg, rituximab 20 mg/kg, alone or combined
[8] = Table 10, low dose: CMC-544 40 μg/kg, rituximab 5 mg/kg, alone or combined
[9] = Table 10, medium dose: CMC-544 80 μg/kg, rituximab 10 mg/kg, alone or combined

Fc-CD22, sequence (P20273 20-416 limits assumed): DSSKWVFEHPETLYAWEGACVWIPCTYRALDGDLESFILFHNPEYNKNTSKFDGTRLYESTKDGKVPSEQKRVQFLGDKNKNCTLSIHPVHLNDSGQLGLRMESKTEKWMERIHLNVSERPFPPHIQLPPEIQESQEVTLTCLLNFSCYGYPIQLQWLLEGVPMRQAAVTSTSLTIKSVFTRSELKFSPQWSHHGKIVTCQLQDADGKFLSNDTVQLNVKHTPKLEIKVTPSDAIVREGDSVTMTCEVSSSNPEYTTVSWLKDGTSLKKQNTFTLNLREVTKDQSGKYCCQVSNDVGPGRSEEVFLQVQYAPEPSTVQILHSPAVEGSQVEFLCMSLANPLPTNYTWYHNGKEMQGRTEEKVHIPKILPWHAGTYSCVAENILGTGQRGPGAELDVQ

5/44: murine anti-CD22 monoclonal antibody, the murine parent of G5/44
Response 1 with G544 (Fc-CD22): 725.1 RU

CMC-544: G5/44-NAc-gamma-calicheamicin DMH AcBut conjugate; monomeric calicheamicin derivative/humanized anti-CD22 antibody (G5/44)
Average Survival Time (Ramos cells [1]): 41 days and 41.0 days
Maximum Survival Time (Ramos cells [1]): 60.0 days
Median Survival Time (Ramos cells [1]): 38.0 days
Minimum Survival Time (Ramos cells [1]): 32.0 days
median inhibitory concentration (IC50) (Ramos cells [2]): 0.029 ng/mL
inhibition of growth of RAMOS B-cell lymphoma (RAMOS B-cell lymphoma): efficacious in inhibiting, in a dose-dependent manner, the growth of RAMOS B-cell lymphoma
tumor-free mice by day 20 (large RAMOS lymphoma; 160 μg/kg conjugated calicheamicin ip, tumors staged to 1.5 or 2 g): 3 out of 4
re-growth of regressed lymphoma up to day 50 (large RAMOS lymphoma; 160 μg/kg ip): did not indicate any re-growth
mice still surviving at 125 days (Ramos cells [3]; CMC-544 40 μg/kg): 90%
Average Survival Time (Ramos cells [3]; [5]): 83.5 days
Median Survival Time (Ramos cells [3]; [5]): 76.5 days
Minimum Survival Time (Ramos cells [3]; [5]): 34.0 days
Maximum Survival Time (Ramos cells [3]; [6]): >100.0 days
Median Survival Time (Ramos cells [3]; [6]): 34.5 days
Minimum Survival Time (Ramos cells [3]; [6]): 27.0 days
Average Survival Time (Ramos cells [3]; Table 9 initial combination study, high dose: CMC-544 160 μg/kg, rituximab 20 mg/kg, alone or combined): 58.5 days
Average Survival Time (Ramos cells [3]; [7]): 85 days and 85.22 days
Maximum Survival Time (Ramos cells [3]; [7]): 125.00 days
Median Survival Time (Ramos cells [3]; [7]): 82.00 days
Minimum Survival Time (Ramos cells [3]; [7]): 35.00 days
Average Survival Time (Ramos cells [3]; [8]): 118.90 days
Maximum Survival Time (Ramos cells [3]; [8]): 125.00 days
Median Survival Time (Ramos cells [3]; [8]): 125.00 days
Minimum Survival Time (Ramos cells [3]; [8]): 64.00 days
Average Survival Time (Ramos cells [3]; [9]): 118.22 days
Maximum Survival Time (Ramos cells [3]; [9]): 125.00 days
Median Survival Time (Ramos cells [3]; [9]): 125.00 days
Minimum Survival Time (Ramos cells [3]; [9]): 71.00 days
recognition of CD22 on B cells of different species (CD22 on B cells): specifically recognizes CD22 on human B cells, but not on murine, rat, canine, porcine or primate (cynomolgus and rhesus) B cells
binding to HL-60 leukemia cells [4]: neither CMC-544 nor G5/44 demonstrated any binding
antitumor effect (RL B lymphoma xenograft): complete and lasted throughout the experimental period
mice with re-growth of the tumors by day 45 (RL lymphoma; 160 μg/kg ip): 2
regression of the pre-existing mass of RL lymphoma (RL lymphoma; 160 μg/kg ip, within 30 days): > 90%
response of re-grown RL tumors to a second course (RL lymphoma; studies not shown): still responsive to the second course of the treatment with CMC-544 and regressed again
tumor regression at higher doses (RL NHL xenografts; 60-320 μg/kg): almost complete regression of RL lymphoma
minimally effective dose in the RL lymphoma model (RL NHL xenografts; based on calicheamicin content, from statistical analyses of three studies): 0.02 mg/kg
% T/C (RL NHL xenografts; calicheamicin dose 20 μg/kg): 43%
MEAN RELATIVE TUMOR GROWTH (RL NHL xenografts; calicheamicin dose 20 μg/kg): 2.87
% T/C (RL NHL xenografts; calicheamicin dose 40 μg/kg): 20%
MEAN RELATIVE TUMOR GROWTH (RL NHL xenografts; calicheamicin dose 40 μg/kg): 1.34
% T/C (RL NHL xenografts; calicheamicin dose 60 μg/kg): 9%
MEAN RELATIVE TUMOR GROWTH (RL NHL xenografts; calicheamicin dose 60 μg/kg): 0.58
% T/C (RL NHL xenografts; calicheamicin dose 80 μg/kg): 8%
MEAN RELATIVE TUMOR GROWTH (RL NHL xenografts; calicheamicin dose 80 μg/kg): 0.54
% T/C (RL NHL xenografts; calicheamicin dose 160 μg/kg): 3%
MEAN RELATIVE TUMOR GROWTH (RL NHL xenografts; calicheamicin dose 160 μg/kg): 0.21
% T/C (RL NHL xenografts; calicheamicin dose 320 μg/kg): 1%
MEAN RELATIVE TUMOR GROWTH (RL NHL xenografts; calicheamicin dose 320 μg/kg): 0.10
deaths (RL NHL xenografts; three independent experiments, 20-320 μg/kg): no deaths
